Experimental data from ChEMBL document CHEMBL2057188, “Hybridizing ability and nuclease resistance profile of backbone modified cationic phosphorothioate oligonucleotides” (Bioorg Med Chem, 2012).

What was measured:
Type in all cases: nucleic-acid assay
Nucleic Acid [1] = test: (§1) DNA hybridizing activity at single stranded DNA assessed as thermal stability of duplexes formed between compound and complimentary ssDNA by measuring change in melting temperature at 4 uM in presence of 10 mM pH 7.2 sodium phosphate buffer containing 100 mM NaCl by UV based melting experiment relative to untreated control
Nucleic Acid [2] = test: (§2) DNA hybridizing activity at 22 bp double stranded DNA assessed as thermal stability of duplexes formed between compound and complimentary dsDNA by measuring change in melting temperature at 1.5 uM in presence of 7 mM pH 5.5 sodium phosphate buffer containing 140 mM K, 10 mM MgCl2 by UV based melting experiment
Nucleic Acid [3] = test: as §1, with “stranded RNA” for “stranded DNA”, “complimentary ssRNA” for “complimentary ssDNA”
Nucleic Acid [4] = test: DNA hybridizing activity at single stranded RNA assessed as thermal stability of duplexes formed between compound and complimentary ssRNA by measuring melting temperature at 4 uM in presence of 10 mM pH 7.2 sodium phosphate buffer containing 100 mM NaCl by UV based melting experiment
Nucleic Acid [5] = test: as §2, with “measuring” for “measuring change in”
Nucleic Acid [6] = test: DNA hybridizing activity at single stranded DNA assessed as thermal stability of duplexes formed between compound and complimentary ssDNA by measuring melting temperature at 4 uM in presence of 10 mM pH 7.2 sodium phosphate buffer containing 100 mM NaCl by UV based melting experiment

Row | SMILES | ΔTm (Nucleic Acid [1]) [°C] | ΔTm (Nucleic Acid [2]) [°C] | ΔTm (Nucleic Acid [3]) [°C] | Tm (Nucleic Acid [4]) [°C] | Tm (Nucleic Acid [5]) [°C] | Tm (Nucleic Acid [6]) [°C]
1 | Cc1cn([C@H]2C[C@H](OP(=O)(O)OC[C@H]3O[C@@H](n4cc(C)c(=O)[nH]c4=O)C[C@@H]3OP(=O)(O)OC[C@H]3O[C@@H](n4cc(C)c(=O)[nH]c4=O)C[C@@H]3O[P@@](=O)(OC[C@H]3O[C@@H](n4cc(C)c(=O)[nH]c4=O)C[C@@H]3OP(=O)(O)OC[C@H]3O[C@@H](n4cc(C)c(=O)[nH]c4=O)C[C@@H]3OP(=O)(O)OC[C@H]3O[C@@H](n4cc(C)c(=O)[nH]c4=O)C[C@@H]3OP(=O)(O)OC[C@H]3O[C@@H](n4ccc(N)nc4=O)C[C@@H]3OP(=O)(O)OC[C@H]3O[C@@H](n4ccc(N)nc4=O)C[C@@H]3OP(=O)(O)OC[C@H]3O[C@@H](n4ccc(N)nc4=O)C[C@@H]3OP(=O)(O)O)SCCCN)[C@@H](COP(=O)(O)O[C@H]3C[C@H](n4ccc(N)nc4=O)O[C@@H]3COP(=O)(O)O[C@H]3C[C@H](n4ccc(N)nc4=O)O[C@@H]3COP(=O)(O)O[C@H]3C[C@H](n4ccc(N)nc4=O)O[C@@H]3CO)O2)c(=O)[nH]c1=O | 1 | 4 | 0 | 46 | 29 | 43
2 | Cc1cn([C@H]2C[C@H](OP(=O)(O)OC[C@H]3O[C@@H](n4cc(C)c(=O)[nH]c4=O)C[C@@H]3OP(=O)(O)OC[C@H]3O[C@@H](n4cc(C)c(=O)[nH]c4=O)C[C@@H]3O[P@](=O)(OC[C@H]3O[C@@H](n4cc(C)c(=O)[nH]c4=O)C[C@@H]3OP(=O)(O)OC[C@H]3O[C@@H](n4cc(C)c(=O)[nH]c4=O)C[C@@H]3OP(=O)(O)OC[C@H]3O[C@@H](n4cc(C)c(=O)[nH]c4=O)C[C@@H]3OP(=O)(O)OC[C@H]3O[C@@H](n4ccc(N)nc4=O)C[C@@H]3OP(=O)(O)OC[C@H]3O[C@@H](n4ccc(N)nc4=O)C[C@@H]3OP(=O)(O)OC[C@H]3O[C@@H](n4ccc(N)nc4=O)C[C@@H]3OP(=O)(O)O)SCCNCCCN)[C@@H](COP(=O)(O)O[C@H]3C[C@H](n4ccc(N)nc4=O)O[C@@H]3COP(=O)(O)O[C@H]3C[C@H](n4ccc(N)nc4=O)O[C@@H]3COP(=O)(O)O[C@H]3C[C@H](n4ccc(N)nc4=O)O[C@@H]3CO)O2)c(=O)[nH]c1=O | -2 | -1 | -2 | 44 | 25 | 40
3 | Cc1cn([C@H]2C[C@H](OP(=O)(O)OC[C@H]3O[C@@H](n4cc(C)c(=O)[nH]c4=O)C[C@@H]3OP(=O)(O)OC[C@H]3O[C@@H](n4cc(C)c(=O)[nH]c4=O)C[C@@H]3O[P@](=O)(OC[C@H]3O[C@@H](n4cc(C)c(=O)[nH]c4=O)C[C@@H]3OP(=O)(O)OC[C@H]3O[C@@H](n4cc(C)c(=O)[nH]c4=O)C[C@@H]3OP(=O)(O)OC[C@H]3O[C@@H](n4cc(C)c(=O)[nH]c4=O)C[C@@H]3OP(=O)(O)OC[C@H]3O[C@@H](n4ccc(N)nc4=O)C[C@@H]3OP(=O)(O)OC[C@H]3O[C@@H](n4ccc(N)nc4=O)C[C@@H]3OP(=O)(O)OC[C@H]3O[C@@H](n4ccc(N)nc4=O)C[C@@H]3OP(=O)(O)O)SCCN)[C@@H](COP(=O)(O)O[C@H]3C[C@H](n4ccc(N)nc4=O)O[C@@H]3COP(=O)(O)O[C@H]3C[C@H](n4ccc(N)nc4=O)O[C@@H]3COP(=O)(O)O[C@H]3C[C@H](n4ccc(N)nc4=O)O[C@@H]3CO)O2)c(=O)[nH]c1=O | -1 | -2 | -3 | 43 | 24 | 41
4 | Cc1cn([C@H]2C[C@H](OP(=O)(O)OC[C@H]3O[C@@H](n4cc(C)c(=O)[nH]c4=O)C[C@@H]3OP(=O)(O)OC[C@H]3O[C@@H](n4cc(C)c(=O)[nH]c4=O)C[C@@H]3O[P@](=O)(OC[C@H]3O[C@@H](n4cc(C)c(=O)[nH]c4=O)C[C@@H]3OP(=O)(O)OC[C@H]3O[C@@H](n4cc(C)c(=O)[nH]c4=O)C[C@@H]3OP(=O)(O)OC[C@H]3O[C@@H](n4cc(C)c(=O)[nH]c4=O)C[C@@H]3OP(=O)(O)OC[C@H]3O[C@@H](n4ccc(N)nc4=O)C[C@@H]3OP(=O)(O)OC[C@H]3O[C@@H](n4ccc(N)nc4=O)C[C@@H]3OP(=O)(O)OC[C@H]3O[C@@H](n4ccc(N)nc4=O)C[C@@H]3OP(=O)(O)O)SCCCCCN)[C@@H](COP(=O)(O)O[C@H]3C[C@H](n4ccc(N)nc4=O)O[C@@H]3COP(=O)(O)O[C@H]3C[C@H](n4ccc(N)nc4=O)O[C@@H]3COP(=O)(O)O[C@H]3C[C@H](n4ccc(N)nc4=O)O[C@@H]3CO)O2)c(=O)[nH]c1=O | -3 | -2 | -4 | 42 | 24 | 39
5 | Cc1cn([C@H]2C[C@H](OP(=O)(O)OC[C@H]3O[C@@H](n4cc(C)c(=O)[nH]c4=O)C[C@@H]3OP(=O)(O)OC[C@H]3O[C@@H](n4cc(C)c(=O)[nH]c4=O)C[C@@H]3O[P@](=O)(OC[C@H]3O[C@@H](n4cc(C)c(=O)[nH]c4=O)C[C@@H]3OP(=O)(O)OC[C@H]3O[C@@H](n4cc(C)c(=O)[nH]c4=O)C[C@@H]3OP(=O)(O)OC[C@H]3O[C@@H](n4cc(C)c(=O)[nH]c4=O)C[C@@H]3OP(=O)(O)OC[C@H]3O[C@@H](n4ccc(N)nc4=O)C[C@@H]3OP(=O)(O)OC[C@H]3O[C@@H](n4ccc(N)nc4=O)C[C@@H]3OP(=O)(O)OC[C@H]3O[C@@H](n4ccc(N)nc4=O)C[C@@H]3OP(=O)(O)O)SCCN3CCNCC3)[C@@H](COP(=O)(O)O[C@H]3C[C@H](n4ccc(N)nc4=O)O[C@@H]3COP(=O)(O)O[C@H]3C[C@H](n4ccc(N)nc4=O)O[C@@H]3COP(=O)(O)O[C@H]3C[C@H](n4ccc(N)nc4=O)O[C@@H]3CO)O2)c(=O)[nH]c1=O | -2 | -2 | -2 | 44 | 24 | 40
6 | Cc1cn([C@H]2C[C@H](OP(=O)(O)OC[C@H]3O[C@@H](n4cc(C)c(=O)[nH]c4=O)C[C@@H]3OP(=O)(O)OC[C@H]3O[C@@H](n4cc(C)c(=O)[nH]c4=O)C[C@@H]3O[P@](=O)(OC[C@H]3O[C@@H](n4cc(C)c(=O)[nH]c4=O)C[C@@H]3OP(=O)(O)OC[C@H]3O[C@@H](n4cc(C)c(=O)[nH]c4=O)C[C@@H]3OP(=O)(O)OC[C@H]3O[C@@H](n4cc(C)c(=O)[nH]c4=O)C[C@@H]3OP(=O)(O)OC[C@H]3O[C@@H](n4ccc(N)nc4=O)C[C@@H]3OP(=O)(O)OC[C@H]3O[C@@H](n4ccc(N)nc4=O)C[C@@H]3OP(=O)(O)OC[C@H]3O[C@@H](n4ccc(N)nc4=O)C[C@@H]3OP(=O)(O)O)SCCNCCN)[C@@H](COP(=O)(O)O[C@H]3C[C@H](n4ccc(N)nc4=O)O[C@@H]3COP(=O)(O)O[C@H]3C[C@H](n4ccc(N)nc4=O)O[C@@H]3COP(=O)(O)O[C@H]3C[C@H](n4ccc(N)nc4=O)O[C@@H]3CO)O2)c(=O)[nH]c1=O | -2 | -1 | -2 | 44 | 25 | 40
